The subject of one assay is Malme-3M. In words: Antiproliferative activity against human MALME-3M cells. The format is functional, cell-based.
The test system of the next assay is MOLT-4. The experiment in a line: Antiproliferative activity against human MOLT4 cells. Type of assay: functional, cell-based.

These results are taken from ChEMBL document CHEMBL1150805, “New cytotoxic isomalabaricane triterpenes from the sponge Jaspis species” (J Nat Prod, 2001).

Take `CC(=O)O[C@@H](CC=C(C)C)/C(C)=C/C=C/C(C)=C1\C(=O)C[C@H]2[C@@]3(C)CC[C@@H](OC(C)=O)[C@](C)(CO)[C@@H]3CC[C@]12C` (mixture of isomers): the half-inhibitory concentration (IC50) (as a rule, the concentration at which inhibition is half-maximal) in the assay on Malme-3M was determined as 1.2 µg/mL; with MOLT-4, 16.6 µg/mL.
For `CC(=O)O[C@H]1CC[C@@]2(C)[C@@H](CC[C@]3(C)/C(=C(C)/C=C/C=C(\C)[C@@H](O)CC=C(C)C)C(=O)C[C@@H]23)[C@@]1(C)CO` (mixture of isomers) the same measures were 0.11 µg/mL and 1.62 µg/mL.
`CC(=O)O[C@@H](CC=C(C)C)/C(C)=C/C=C/C(C)=C1\C(=O)C[C@H]2[C@@]3(C)CC[C@H](OC(C)=O)[C@](C)(CO)[C@@H]3CC[C@]12C` (mixture of isomers): the IC50 was 2.27 µg/mL in the assay on Malme-3M and 19.5 µg/mL in the assay with MOLT-4.
In the same order, the values of `CC(=O)O[C@@H](CC=C(C)C)/C(C)=C/C=C/C(C)=C1\C(=O)C[C@H]2[C@@]3(C)CC[C@@H](O)[C@](C)(CO)[C@@H]3CC[C@]12C` (mixture of isomers) are 0.23 µg/mL and 4.11 µg/mL.
